Data taken from PubChem BioAssay (NCI).
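The concentration for 50% growth inhibition is given as GI50. TGI: concentration producing complete growth inhibition.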

Tests used:
Experiment in all cases: NCI anticancer screen, dose series, 384-well format
[1] = test system: NCI-H522 lung
[2] = test system: SF-268 CNS
[3] = test system: LOX IMVI melanoma
[4] = test system: RXF 393 renal
[5] = test system: KM12 colon
[6] = test system: MDA-MB-468 breast
[7] = test system: M14 melanoma
[8] = test system: NCI-H226 lung
[9] = test system: MALME-3M melanoma
[10] = test system: HL-60(TB) leukemia
[11] = test system: SF-539 CNS
[12] = test system: ACHN renal
[13] = test system: NCI/ADR-RES ovarian
[14] = test system: SNB-19 CNS
[15] = test system: UACC-257 melanoma
[16] = test system: SK-MEL-5 melanoma
[17] = test system: NCI-H322M lung
[18] = test system: OVCAR-5 ovarian
[19] = test system: SK-MEL-28 melanoma
[20] = test system: OVCAR-4 ovarian
[21] = test system: HS 578T breast
[22] = test system: MDA-MB-231 breast
[23] = test system: A549 NSCLC
[24] = test system: COLO 205 colon
[25] = test system: SR leukemia
[26] = test system: TK-10 renal
[27] = test system: HCT-15 colon
[28] = test system: SK-OV-3 ovarian
[29] = test system: MCF7 breast
[30] = test system: PC-3 prostate
[31] = test system: NCI-H460 NSCLC
[32] = test system: SNB-75 CNS
[33] = test system: T-47D breast
[34] = test system: BT-549 breast
[35] = test system: HOP-62 NSCLC
[36] = test system: OVCAR-8 ovarian
[37] = test system: OVCAR-3 ovarian
[38] = test system: CAKI-1 renal
[39] = test system: HOP-92 NSCLC
[40] = test system: A498 renal
[41] = test system: NCI-H23 lung
[42] = test system: MDA-MB-435 melanoma
[43] = test system: UACC-62 melanoma
[44] = test system: HT29 colon
[45] = test system: MOLT-4 leukemia
[46] = test system: IGROV1 ovarian
[47] = test system: EKVX NSCLC
[48] = test system: HCC-2998 colon
[49] = test system: HCT-116 colon
[50] = test system: RPMI-8226 leukemia
[51] = test system: SF-295 CNS
[52] = test system: U251 glioblastoma
[53] = test system: SN12C renal
[54] = test system: DU-145 prostate

CC(C)C[C@H](NC(=O)[C@@H](NC(=O)c1cccc(-c2ccccc2)n1)[C@@H](C)O)B(O)O
GI50 [1]: 122 nM | TGI [1]: 249 nM | GI50 [2]: 266 nM | TGI [2]: 787 nM | GI50 [3]: 216 nM | TGI [3]: 507 nM | GI50 [4]: 147 nM | TGI [4]: 297 nM | GI50 [5]: 346 nM | TGI [5]: 1280 nM | GI50 [6]: 168 nM | TGI [6]: 405 nM | GI50 [7]: 163 nM | TGI [7]: 305 nM | GI50 [8]: 11.4 nM | TGI [8]: 103 nM | GI50 [9]: 104 nM | TGI [9]: 239 nM | GI50 [10]: 77.6 nM | TGI [10]: 198 nM | GI50 [11]: 165 nM | TGI [11]: 308 nM | GI50 [12]: 239 nM | TGI [12]: 957 nM | GI50 [13]: 11100 nM | TGI [13]: 24500 nM | GI50 [14]: 234 nM | TGI [14]: 870 nM | GI50 [15]: 116 nM | TGI [15]: 245 nM | GI50 [16]: 129 nM | TGI [16]: 285 nM | GI50 [17]: 2030 nM | TGI [17]: 11800 nM | GI50 [18]: 260 nM | TGI [18]: 940 nM | GI50 [19]: 89.1 nM | TGI [19]: 240 nM | GI50 [20]: 210 nM | TGI [20]: 569 nM | GI50 [21]: 143 nM | TGI [21]: 294 nM | GI50 [22]: 327 nM | TGI [22]: 1280 nM | GI50 [23]: 1080 nM | TGI [23]: 16300 nM | GI50 [24]: 442 nM | TGI [24]: > 100000 nM | TGI [25]: 221 nM | GI50 [26]: 157 nM | TGI [26]: 418 nM | GI50 [27]: 556 nM | TGI [27]: 1880 nM | GI50 [28]: 560 nM | TGI [28]: 11000 nM | GI50 [29]: 129 nM | TGI [29]: 10700 nM | GI50 [30]: 257 nM | TGI [30]: 685 nM | GI50 [31]: 426 nM | TGI [31]: 1550 nM | GI50 [32]: 297 nM | TGI [32]: 1260 nM | GI50 [33]: 224 nM | TGI [33]: 783 nM | GI50 [34]: 139 nM | TGI [34]: 288 nM | GI50 [35]: 237 nM | TGI [35]: 765 nM | GI50 [36]: 374 nM | TGI [36]: 1520 nM | GI50 [37]: 103 nM | TGI [37]: 228 nM | GI50 [38]: 492 nM | TGI [38]: 19000 nM | GI50 [39]: 432 nM | TGI [39]: 1890 nM | GI50 [40]: 312 nM | TGI [40]: 1850 nM | GI50 [41]: 292 nM | TGI [41]: 1190 nM | GI50 [42]: 163 nM | TGI [42]: 305 nM | GI50 [43]: 291 nM | TGI [43]: 1160 nM | GI50 [44]: 127 nM | TGI [44]: 274 nM | GI50 [45]: 21.8 nM | TGI [45]: 56.4 nM | GI50 [46]: 560 nM | TGI [46]: 2120 nM | GI50 [47]: 523 nM | TGI [47]: 2850 nM | GI50 [48]: 141 nM | TGI [48]: 371 nM | GI50 [49]: 160 nM | TGI [49]: 347 nM | GI50 [50]: 11.2 nM | TGI [50]: 26 nM | GI50 [51]: 374 nM | TGI [51]: 1540 nM | GI50 [52]: 420 nM | TGI [52]: 1940 nM | GI50 [53]: 123 nM | TGI [53]: 422 nM | GI50 [54]: 432 nM | TGI [54]: 1760 nM
